Results reported in PubChem BioAssay AID256 (DTP/NCI, 2004).
Values joined by “and” are separate entries in the source; they are usually repeats but may differ in a detail not shown here. Equal entries are not always repeated. Toxic doses and inconclusive results are not listed.

Test system: CD2F1 mice, L1210 leukemia ip, survival T/C
Assay: NCI In Vivo Anticancer Drug Screen. Data for tumor model L1210 Leukemia (intraperitoneal) in CD2F1 (CDF1) mice
Settings: endpoint: mean survival time, higher = longer survival
Summary of the method: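 Each value reflects a quotient of treated over vehicle control outcomes in mice with a transplanted tumor.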

[1] = dose: 25.0 mg/kg/injection, schedule: Q04DX003 (ip), vehicle: saline with Tween-80
[2] = dose: 100.0 mg/kg/injection, schedule: Q01DX001 (ip), vehicle: saline with Tween-80
[3] = dose: 200.0 mg/kg/injection, schedule: Q01DX001 (ip), vehicle: saline with Tween-80
[4] = dose: 100.0 mg/kg/injection, schedule: Q01DX001 (ip), vehicle: saline
[5] = dose: 200.0 mg/kg/injection, schedule: Q01DX001 (ip), vehicle: saline
[6] = dose: 100.0 mg/kg/injection, schedule: Q01DX009 (ip), vehicle: saline with Tween-80
[7] = dose: 200.0 mg/kg/injection, schedule: Q01DX009 (ip), vehicle: saline with Tween-80
[8] = dose: 400.0 mg/kg/injection, schedule: Q01DX009 (ip), vehicle: saline with Tween-80
[9] = dose: 100.0 mg/kg/injection, schedule: Q01DX009 (ip), vehicle: Klucel (hydroxypropylcellulose) (HPC)
[10] = dose: 200.0 mg/kg/injection, schedule: Q01DX009 (ip), vehicle: Klucel (hydroxypropylcellulose) (HPC)
[11] = dose: 100.0 mg/kg/injection, schedule: Q04DX003 (ip), vehicle: saline with Tween-80
[12] = dose: 200.0 mg/kg/injection, schedule: Q04DX003 (ip), vehicle: saline with Tween-80
[13] = dose: 400.0 mg/kg/injection, schedule: Q04DX003 (ip), vehicle: saline with Tween-80
[14] = dose: 50.0 mg/kg/injection, schedule: Q01DX009 (ip), vehicle: Klucel (hydroxypropylcellulose) (HPC)
[15] = dose: 50.0 mg/kg/injection, schedule: Q01DX009 (ip), vehicle: saline with Tween-80

CCCC1CC[N-]CC1.CCCC1CC[N-]CC1.CCCC1CC[N-]CC1.CCCC1CC[N-]CC1.[Cl][Rh][Cl]
T/C [1]: 90 % of control

CCCCCCCCCCCCCCNC(=O)Nc1ccc(Cl)c(Cl)c1
T/C (dose: 100.0 mg/kg/injection, schedule: Q04DX003 (ip), vehicle: other): 89 % of control
T/C (dose: 200.0 mg/kg/injection, schedule: Q04DX003 (ip), vehicle: other): 86 % of control

CCCCn1c(C)nc2c([N+](=O)[O-])cc(C(F)(F)F)cc21
T/C (dose: 50.0 mg/kg/injection, schedule: Q01DX001 (ip), vehicle: saline with Tween-80): 95 % of control
T/C [2]: 98 % of control
T/C [3]: 95 % of control

CC1(C)C/C(=C\c2ccccc2)C(=O)c2ccccc21
T/C (dose: 100.0 mg/kg/injection, schedule: Q01DX009 (ip), vehicle: other): 104 % of control
T/C (dose: 200.0 mg/kg/injection, schedule: Q01DX009 (ip), vehicle: other): 112 % of control
T/C (dose: 400.0 mg/kg/injection, schedule: Q01DX009 (ip), vehicle: other): 96 % of control

CCOC(=S)SCCCC(C)CC (stereo unspecified)
T/C [4]: 100 % of control
T/C [5]: 102 % of control
T/C (dose: 400.0 mg/kg/injection, schedule: Q01DX001 (ip), vehicle: saline): 102 % of control

CCOC(=O)C(NCc1ccccc1)C(=O)OCC
T/C (dose: 12.5 mg/kg/injection, schedule: Q01DX009 (ip), vehicle: water): 96 % of control
T/C (dose: 25.0 mg/kg/injection, schedule: Q01DX009 (ip), vehicle: water): 98 % of control
T/C (dose: 50.0 mg/kg/injection, schedule: Q01DX009 (ip), vehicle: water): 101 % of control
T/C (dose: 100.0 mg/kg/injection, schedule: Q01DX009 (ip), vehicle: water): 93 % of control

NC(=S)N/N=C/c1ccc(F)cn1
T/C (dose: 11.0 mg/kg/injection, schedule: Q04DX003 (ip), vehicle: saline with Tween-80): 105 % of control
T/C (dose: 12.5 mg/kg/injection, schedule: Q04DX002 (ip), vehicle: saline with Tween-80): 118 % of control
T/C (dose: 16.5 mg/kg/injection, schedule: Q04DX003 (ip), vehicle: saline with Tween-80): 110 % of control
T/C [1]: 110 % of control

[N-]=[N+]=NC(=O)c1cnc(OCc2ccccc2)nc1N
T/C [2]: 91 % of control
T/C [6]: 93 % of control
T/C [3]: 96 % of control
T/C [7]: 96 % of control
T/C (dose: 400.0 mg/kg/injection, schedule: Q01DX001 (ip), vehicle: saline with Tween-80): 94 % of control
T/C [8]: 93 % of control

O=[N+]([O-])c1cccc(Cc2nncc3ccccc23)c1
T/C [6]: 96 % of control
T/C [7]: 94 % of control
T/C [8]: 94 % of control

O=C(O)CCSc1ccc2c(c1)CCCC2
T/C [9]: 101 % of control
T/C [10]: 98 % of control

O=S(=O)(Nc1ccc2ccccc2c1)c1ccccc1
T/C [6]: 98 % of control
T/C (dose: 100.0 mg/kg/injection, schedule: Q04DX003 (ip), vehicle: saline): 104 % of control
T/C [7]: 98 % of control
T/C (dose: 200.0 mg/kg/injection, schedule: Q04DX003 (ip), vehicle: saline): 101 % of control
T/C [8]: 98 % of control
T/C (dose: 400.0 mg/kg/injection, schedule: Q04DX003 (ip), vehicle: saline): 96 % of control

CC(=O)Nc1nnc(-c2ccc([N+](=O)[O-])o2)s1
T/C (dose: 75.0 mg/kg/injection, schedule: Q04DX003 (ip), vehicle: saline): 97 % of control
T/C (dose: 150.0 mg/kg/injection, schedule: Q04DX003 (ip), vehicle: saline): 100 % of control
T/C (dose: 300.0 mg/kg/injection, schedule: Q04DX003 (ip), vehicle: saline): 97 % of control

CSc1nc2cc(S(=O)(=O)N3CCCCC3)ccc2s1
T/C [6]: 93 % of control
T/C [11]: 89 % of control
T/C [7]: 95 % of control
T/C [12]: 89 % of control
T/C [8]: 93 % of control
T/C [13]: 86 % of control

COc1ccc(NC(=O)Nc2ccc(F)cc2)cc1
T/C [11]: 101 % of control
T/C [12]: 96 % of control
T/C [13]: 102 % of control

COc1cc(C(=O)c2cc3c(cc2C)OCO3)cc(OC)c1OC
T/C (dose: 6.25 mg/kg/injection, schedule: Q01DX009 (ip), vehicle: Klucel (hydroxypropylcellulose) (HPC)): 102 % of control and 105 % of control
T/C (dose: 12.5 mg/kg/injection, schedule: Q01DX009 (ip), vehicle: Klucel (hydroxypropylcellulose) (HPC)): 100 % of control and 102 % of control
T/C (dose: 25.0 mg/kg/injection, schedule: Q01DX009 (ip), vehicle: Klucel (hydroxypropylcellulose) (HPC)): 105 % of control and 107 % of control
T/C [14]: 113 % of control and 98 % of control
T/C [9]: 105 % of control
T/C [10]: 114 % of control

COc1cc(OC)c(NC(=O)OCCOc2ccc(Br)cc2)cc1Cl
T/C [15]: 90 % of control
T/C [6]: 90 % of control
T/C [7]: 97 % of control

Cc1ccc(S(=O)(=O)Nc2ccc([N+](=O)[O-])cc2O)cc1
T/C (dose: 100.0 mg/kg/injection, schedule: Q04DX003 (ip), vehicle: Klucel (hydroxypropylcellulose) (HPC)): 94 % of control
T/C (dose: 200.0 mg/kg/injection, schedule: Q04DX003 (ip), vehicle: Klucel (hydroxypropylcellulose) (HPC)): 94 % of control
T/C (dose: 400.0 mg/kg/injection, schedule: Q04DX003 (ip), vehicle: Klucel (hydroxypropylcellulose) (HPC)): 94 % of control

O=C(O)C(O)CBr (stereo unspecified)
T/C (dose: 12.5 mg/kg/injection, schedule: Q04DX003 (ip), vehicle: saline): 101 % of control
T/C (dose: 25.0 mg/kg/injection, schedule: Q04DX003 (ip), vehicle: saline): 106 % of control
T/C (dose: 50.0 mg/kg/injection, schedule: Q04DX003 (ip), vehicle: saline): 106 % of control

O=C(O)C(O)C(=O)O.[NH-]C1CCCCC1[NH-].[Pt+2]
T/C (dose: 1.18 mg/kg/injection, schedule: Q04DX003 (ip), vehicle: saline with Tween-80): 109 % of control
T/C (dose: 2.35 mg/kg/injection, schedule: Q04DX003 (ip), vehicle: saline with Tween-80): 120 % of control
T/C (dose: 4.7 mg/kg/injection, schedule: Q04DX003 (ip), vehicle: saline with Tween-80): 124 % of control

O=C(NCCN1CC1)c1ccccc1C(=O)NCCN1CC1
T/C [1]: 105 % of control
T/C (dose: 50.0 mg/kg/injection, schedule: Q04DX003 (ip), vehicle: saline with Tween-80): 100 % of control
T/C [4]: 110 % of control
T/C [11]: 117 % of control
T/C [5]: 164 % of control

O=C(O)CCCCCCCCC(=O)O (tested in a mixture with another compound)
T/C [15]: 100 % of control
T/C [6]: 100 % of control
T/C [7]: 102 % of control

COC(=O)C(O)c1ccc2c(c1)OCO2 (stereo unspecified)
T/C [6]: 97 % of control
T/C [7]: 90 % of control
T/C [8]: 90 % of control

OC(CC(CC(O)(C(F)(F)F)C(F)(F)F)=NNc1ccccc1)(C(F)(F)F)C(F)(F)F
T/C (dose: 25.0 mg/kg/injection, schedule: Q01DX009 (ip), vehicle: saline with Tween-80): 92 % of control
T/C [15]: 93 % of control

NC1=NC(c2ccccc2)N(c2cccc(Cl)c2)C(N)=N1 (stereo unspecified)
T/C (dose: 25.0 mg/kg/injection, schedule: Q01DX001 (ip), vehicle: saline): 107 % of control
T/C (dose: 50.0 mg/kg/injection, schedule: Q01DX001 (ip), vehicle: saline): 104 % of control
T/C [4]: 101 % of control

NC1C(O)C(N)C(O)C(O)C1O (stereo unspecified)
T/C (dose: 100.0 mg/kg/injection, schedule: Q01DX009 (ip), vehicle: saline sonified): 90 % of control
T/C (dose: 200.0 mg/kg/injection, schedule: Q01DX009 (ip), vehicle: saline sonified): 95 % of control
T/C (dose: 400.0 mg/kg/injection, schedule: Q01DX009 (ip), vehicle: saline sonified): 95 % of control

ClC1CCC[N-]C1.ClC1CCC[N-]C1.[Cl][Pt+2]([Cl])([Cl])[Cl] (stereo unspecified)
T/C (dose: 0.78 mg/kg/injection, schedule: Q01DX009 (ip), vehicle: saline with Tween-80): 102 % of control
T/C (dose: 1.56 mg/kg/injection, schedule: Q01DX009 (ip), vehicle: saline with Tween-80): 109 % of control
T/C (dose: 3.13 mg/kg/injection, schedule: Q01DX009 (ip), vehicle: saline with Tween-80): 105 % of control
T/C (dose: 6.25 mg/kg/injection, schedule: Q01DX009 (ip), vehicle: saline with Tween-80): 112 % of control
T/C (dose: 12.5 mg/kg/injection, schedule: Q01DX009 (ip), vehicle: saline with Tween-80): 104 % of control

COc1cc2ccc(CC(N)=O)cc2cc1OC
T/C [6]: 100 % of control
T/C [7]: 97 % of control
T/C [8]: 97 % of control

CCC(c1ccccc1)C(CC)c1ccc(N(C)C)cc1 (stereo unspecified)
T/C [14]: 95 % of control
T/C [9]: 94 % of control
T/C [10]: 91 % of control
T/C (dose: 400.0 mg/kg/injection, schedule: Q01DX009 (ip), vehicle: Klucel (hydroxypropylcellulose) (HPC)): 97 % of control

CC(=O)C(C(C)=O)C(c1ccccc1Cl)C(C(C)=O)C(C)=O
T/C [6]: 98 % of control
T/C [7]: 102 % of control
T/C [8]: 95 % of control
